Experimental data: patent US20250197382A1, “KIF18A INHIBITOR” (WIGEN BIOMEDICINE TECHNOLOGY (SHANGHAI) CO., LTD., priority 2022, published 2025)

Target: Recombinant human KIF18A (1-467His-tagged) protein (Homo sapiens (Human), UniProt Q8NI77)
Test: KIF18A enzyme assay (microtubule-stimulated ATPase activity, ADP-Glo)
Assay type: biochemical
Settings: 30 nM KIF18A, ATP 75 μM, read-out: inhibitory activity against KIF18A IC50
Outline: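 Baculovirus-expressed human KIF18A (1-467, His-tagged; 30 nM) preincubated 15 min at room temperature with compound (22-point 2-fold series) in pH 7.5 Tris buffer containing 30 μg/mL pig microtubules and 1 μM paclitaxel.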

Recombinant human KIF18A (1-467His-tagged) protein, sequence (Q8NI77 1-467): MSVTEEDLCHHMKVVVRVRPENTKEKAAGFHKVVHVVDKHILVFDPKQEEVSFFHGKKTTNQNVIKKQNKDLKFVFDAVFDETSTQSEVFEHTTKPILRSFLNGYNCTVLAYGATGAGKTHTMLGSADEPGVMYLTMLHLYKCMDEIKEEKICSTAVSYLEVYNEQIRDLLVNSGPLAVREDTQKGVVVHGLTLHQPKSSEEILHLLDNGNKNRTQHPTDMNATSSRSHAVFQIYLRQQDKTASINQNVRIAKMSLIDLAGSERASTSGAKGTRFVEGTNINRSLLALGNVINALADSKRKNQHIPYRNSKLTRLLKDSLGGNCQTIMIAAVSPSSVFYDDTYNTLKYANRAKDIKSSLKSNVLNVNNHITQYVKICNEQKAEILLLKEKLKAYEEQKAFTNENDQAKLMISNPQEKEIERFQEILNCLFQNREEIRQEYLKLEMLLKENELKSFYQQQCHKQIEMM
Recombinant human KIF18A (1-467His-tagged) protein, sequence (P02550 whole entry partner): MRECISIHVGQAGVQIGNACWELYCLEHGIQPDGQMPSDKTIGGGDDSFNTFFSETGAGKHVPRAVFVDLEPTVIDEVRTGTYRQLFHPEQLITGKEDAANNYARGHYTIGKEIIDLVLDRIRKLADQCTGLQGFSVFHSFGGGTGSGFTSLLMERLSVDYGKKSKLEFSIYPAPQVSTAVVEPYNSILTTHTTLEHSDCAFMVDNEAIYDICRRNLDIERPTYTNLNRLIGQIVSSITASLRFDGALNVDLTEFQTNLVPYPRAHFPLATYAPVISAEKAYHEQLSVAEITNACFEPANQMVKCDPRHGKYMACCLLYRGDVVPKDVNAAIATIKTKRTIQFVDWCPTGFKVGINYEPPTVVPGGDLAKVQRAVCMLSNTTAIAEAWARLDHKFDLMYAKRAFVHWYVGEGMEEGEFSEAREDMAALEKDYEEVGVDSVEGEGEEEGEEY
Recombinant human KIF18A (1-467His-tagged) protein, sequence (P02554 whole entry partner): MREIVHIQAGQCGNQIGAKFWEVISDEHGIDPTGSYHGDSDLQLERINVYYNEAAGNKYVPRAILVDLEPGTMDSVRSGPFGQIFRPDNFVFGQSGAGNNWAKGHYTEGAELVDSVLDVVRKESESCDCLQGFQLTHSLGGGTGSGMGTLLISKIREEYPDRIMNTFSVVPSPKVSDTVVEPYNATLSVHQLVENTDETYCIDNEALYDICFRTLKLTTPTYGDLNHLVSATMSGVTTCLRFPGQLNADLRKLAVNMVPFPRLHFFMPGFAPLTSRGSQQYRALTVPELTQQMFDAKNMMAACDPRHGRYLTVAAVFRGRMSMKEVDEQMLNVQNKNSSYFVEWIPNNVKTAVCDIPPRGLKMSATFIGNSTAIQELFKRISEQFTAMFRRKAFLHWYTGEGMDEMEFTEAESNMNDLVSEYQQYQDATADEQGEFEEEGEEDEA

IC50, ≤ 100 nM:
C[C@@H]1CN(c2cc(C(=O)Nc3ccc(S(=O)(=O)N[C@@H](C)CO)cc3N3CCC4(CC3)CC4)cc3c2N(C)CC3)CCO1 [Compound 319]
C[C@H](CO)NS(=O)(=O)c1ccc(NC(=O)c2cc3c(c(N4CCO[C@H](C)C4)c2)N(C)CC3)c(N2CCC3(CC2)CC3)c1 [Compound 320]
CN1CCc2cc(NC(=O)c3ccc(NS(=O)(=O)CCO)cc3N3CCC4(CC3)CC4)nc(N3CCC(F)(F)CC3)c21 [Compound 321]
C[C@@H]1CN(c2nc(NC(=O)c3ccc(NS(=O)(=O)CCO)cc3N3CCC4(CC3)CC4)cc3c2N(C)CC3)CCO1 [Compound 322]
C[C@H]1CN(c2nc(NC(=O)c3ccc(NS(=O)(=O)CCO)cc3N3CCC4(CC3)CC4)cc3c2N(C)CC3)CCO1 [Compound 323]
CN1CCc2cc(NC(=O)c3ccc(NS(=O)(=O)CCO)cc3N3CCC4(CC3)CC4)nc(N3CC(F)(F)C3)c21 [Compound 324]
CN1CCc2cc(NC(=O)c3ccc(NS(=O)(=O)CCO)cc3N3CCC4(CC3)CC4)nc(OCCC(F)(F)F)c21 [Compound 325]
CN1CCc2cc(NC(=O)c3ccc(NS(=O)(=O)CCO)cc3N3CCC4(CC3)CC4)nc(N3CCC4(CC4)C3)c21 [Compound 326]
CN1CCc2cc(NC(=O)c3ccc(NS(=O)(=O)CCO)cc3N3CCC4(CC3)CC4)nc(OC3CCC3)c21 [Compound 327]
CN1CCc2cc(NC(=O)c3ccc(NS(=O)(=O)CCO)cc3N3CCC4(CC3)CC4)nc(N3CCC(C)(F)C3)c21 (stereo not shown) [Compound 328]
CN1CCc2cc(NC(=O)c3ccc(NS(=O)(=O)CCO)cc3N3CCC4(CC3)CC4)nc(N3CCC(F)CC3)c21 [Compound 329]
CN1CCc2cc(NC(=O)c3ccc(NS(=O)(=O)CCO)cc3N3CCC4(CC3)CC4)nc(N3CC4CC4C3)c21 (stereo not shown) [Compound 330]
CN1CCc2cc(NC(=O)c3ccc(NS(=O)(=O)CCO)cc3N3CCC4(CC3)CC4)nc(NC(C)(C)CO)c21 [Compound 331]
CN1CCc2cc(NC(=O)c3ccc(S(=O)(=O)NCCO)cc3N3CCC4(CC3)CC4)nc(N3CCOCC3)c21 [Compound 332]
C[C@@H](CO)S(=O)(=O)Nc1ccc(C(=O)Nc2cc3c(c(N4CCC(F)(F)CC4)n2)N(C)CC3)c(C2CCC3(CC2)CC3)c1 [Compound 333]
C[C@H](CO)S(=O)(=O)Nc1ccc(C(=O)Nc2cc3c(c(N4CCC(F)(F)CC4)n2)N(C)CC3)c(N2CCC3(CC2)CC3)c1 [Compound 334]
C[C@@H]1CN(c2nc(NC(=O)c3ccc(NS(=O)(=O)[C@@H](C)CO)cc3N3CCC4(CC3)CC4)cc3c2N(C)CC3)CCO1 [Compound 335]
C[C@@H]1CN(c2nc(NC(=O)c3ccc(NS(=O)(=O)[C@H](C)CO)cc3N3CCC4(CC3)CC4)cc3c2N(C)CC3)CCO1 [Compound 336]
CN1CCc2cc(NC(=O)c3ccc(S(=O)(=O)NCCO)cc3N3CCC4(CC3)CC4)nc(N3CCC(F)(F)CC3)c21 [Compound 337]
C[C@@H]1CN(c2nc(NC(=O)c3ccc(S(=O)(=O)NCCO)cc3N3CCC4(CC3)CC4)cc3c2N(C)CC3)CCO1 [Compound 338]
C[C@H]1CN(c2nc(NC(=O)c3ccc(S(=O)(=O)NCCO)cc3N3CCC4(CC3)CC4)cc3c2N(C)CC3)CCO1 [Compound 339]
CN1CCc2cc(NC(=O)c3ccc(S(=O)(=O)NCCO)cc3N3CCC4(CC3)CC4)nc(N3CC(F)(F)C3)c21 [Compound 340]
CN1CCc2cc(NC(=O)c3ccc(S(=O)(=O)NCCO)cc3N3CCC4(CC3)CC4)nc(N3CCC4(CC4)C3)c21 [Compound 342]
CN1CCc2cc(NC(=O)c3ccc(S(=O)(=O)NCCO)cc3N3CCC4(CC3)CC4)nc(OC3CCC3)c21 [Compound 343]
CN1CCc2cc(NC(=O)c3ccc(S(=O)(=O)NCCO)cc3N3CCC4(CC3)CC4)nc(N3CCC(C)(F)C3)c21 (stereo not shown) [Compound 344]
CN1CCc2cc(NC(=O)c3ccc(S(=O)(=O)NCCO)cc3N3CCC4(CC3)CC4)nc(N3CC4CC4C3)c21 (stereo not shown) [Compound 346]
CN1CCc2cc(NC(=O)c3ccc(S(=O)(=O)NCCO)cc3N3CCC4(CC3)CC4)nc(NC(C)(C)CO)c21 [Compound 347]
C[C@@H](CO)NS(=O)(=O)c1ccc(C(=O)Nc2cc3c(c(N4CCC(F)(F)CC4)n2)N(C)CC3)c(N2CCC3(CC2)CC3)c1 [Compound 349]
C[C@H](CO)NS(=O)(=O)c1ccc(C(=O)Nc2cc3c(c(N4CCC(F)(F)CC4)n2)N(C)CC3)c(N2CCC3(CC2)CC3)c1 [Compound 350]
C[C@@H]1CN(c2nc(NC(=O)c3ccc(S(=O)(=O)N[C@@H](C)CO)cc3N3CCC4(CC3)CC4)cc3c2N(C)CC3)CCO1 [Compound 351]
C[C@H](CO)NS(=O)(=O)c1ccc(C(=O)Nc2cc3c(c(N4CCO[C@H](C)C4)n2)N(C)CC3)c(N2CCC3(CC2)CC3)c1 [Compound 352]
C[C@@H]1CN(c2nc(C(=O)Nc3ccc(NS(=O)(=O)CCO)cc3N3CCC4(CC3)CC4)cc3c2N(C)CC3)CCO1 [Compound 354]
C[C@H]1CN(c2nc(C(=O)Nc3ccc(NS(=O)(=O)CCO)cc3N3CCC4(CC3)CC4)cc3c2N(C)CC3)CCO1 [Compound 355]
CN1CCc2cc(C(=O)Nc3ccc(NS(=O)(=O)CCO)cc3N3CCC4(CC3)CC4)nc(N3CC(F)(F)C3)c21 [Compound 356]
CN1CCc2cc(C(=O)Nc3ccc(NS(=O)(=O)CCO)cc3N3CCC4(CC3)CC4)nc(OCCC(F)(F)F)c21 [Compound 357]
CN1CCc2cc(C(=O)Nc3ccc(NS(=O)(=O)CCO)cc3C3CCC4(CC3)CC4)nc(N3CCC4(CC4)C3)c21 [Compound 358]
CN1CCc2cc(C(=O)Nc3ccc(NS(=O)(=O)CCO)cc3N3CCC4(CC3)CC4)nc(OC3CCC3)c21 [Compound 359]
CN1CCc2cc(C(=O)Nc3ccc(NS(=O)(=O)CCO)cc3N3CCC4(CC3)CC4)nc(N3CCC(C)(F)C3)c21 (stereo not shown) [Compound 360]
CN1CCc2cc(C(=O)Nc3ccc(NS(=O)(=O)CCO)cc3N3CCC4(CC3)CC4)nc(N3CCC(F)CC3)c21 [Compound 361]
CN1CCc2cc(C(=O)Nc3ccc(NS(=O)(=O)CCO)cc3N3CCC4(CC3)CC4)nc(N3CC4CC4C3)c21 (stereo not shown) [Compound 362]
CN1CCc2cc(C(=O)Nc3ccc(NS(=O)(=O)CCO)cc3N3CCC4(CC3)CC4)nc(NC(C)(C)CO)c21 [Compound 363]
CN1CCc2cc(C(=O)Nc3ccc(NS(=O)(=O)CCO)cc3N3CCC4(CC3)CC4)nc(N3CCOCC3)c21 [Compound 364]
C[C@@H](CO)S(=O)(=O)Nc1ccc(NC(=O)c2cc3c(c(N4CCC(F)(F)CC4)n2)N(C)CC3)c(N2CCC3(CC2)CC3)c1 [Compound 365]
C[C@H](CO)S(=O)(=O)Nc1ccc(NC(=O)c2cc3c(c(N4CCC(F)(F)CC4)n2)N(C)CC3)c(N2CCC3(CC2)CC3)c1 [Compound 366]
C[C@@H]1CN(c2nc(C(=O)Nc3ccc(NS(=O)(=O)[C@@H](C)CO)cc3N3CCC4(CC3)CC4)cc3c2N(C)CC3)CCO1 [Compound 367]
C[C@@H]1CN(c2nc(C(=O)Nc3ccc(NS(=O)(=O)[C@H](C)CO)cc3N3CCC4(CC3)CC4)cc3c2N(C)CC3)CCO1 [Compound 368]
CN1CCc2cc(C(=O)Nc3ccc(S(=O)(=O)NCCO)cc3N3CCC4(CC3)CC4)nc(N3CCC(F)(F)CC3)c21 [Compound 369]
C[C@@H]1CN(c2nc(C(=O)Nc3ccc(S(=O)(=O)NCCO)cc3N3CCC4(CC3)CC4)cc3c2N(C)CC3)CCO1 [Compound 370]
C[C@H]1CN(c2nc(C(=O)Nc3ccc(S(=O)(=O)NCCO)cc3N3CCC4(CC3)CC4)cc3c2N(C)CC3)CCO1 [Compound 371]
CN1CCc2cc(C(=O)Nc3ccc(S(=O)(=O)NCCO)cc3N3CCC4(CC3)CC4)nc(N3CC(F)(F)C3)c21 [Compound 372]
CN1CCc2cc(C(=O)Nc3ccc(S(=O)(=O)NCCO)cc3N3CCC4(CC3)CC4)nc(OCCC(F)(F)F)c21 [Compound 373]
CN1CCc2cc(C(=O)Nc3ccc(S(=O)(=O)NCCO)cc3N3CCC4(CC3)CC4)nc(N3CCC4(CC4)C3)c21 [Compound 374]
CN1CCc2cc(C(=O)Nc3ccc(S(=O)(=O)NCCO)cc3N3CCC4(CC3)CC4)nc(OC3CCC3)c21 [Compound 375]
CN1CCc2cc(C(=O)Nc3ccc(S(=O)(=O)NCCO)cc3N3CCC4(CC3)CC4)nc(N3CCC(C)(F)C3)c21 (stereo not shown) [Compound 376]
CN1CCc2cc(C(=O)Nc3ccc(S(=O)(=O)NCCO)cc3N3CCC4(CC3)CC4)nc(N3CCC(F)CC3)c21 [Compound 377]
CN1CCc2cc(C(=O)Nc3ccc(S(=O)(=O)NCCO)cc3N3CCC4(CC3)CC4)nc(N3CC4CC4C3)c21 (stereo not shown) [Compound 378]
CN1CCc2cc(C(=O)Nc3ccc(S(=O)(=O)NCCO)cc3N3CCC4(CC3)CC4)nc(NC(C)(C)CO)c21 [Compound 379]
CN1CCc2cc(C(=O)Nc3ccc(S(=O)(=O)NCCO)cc3N3CCC4(CC3)CC4)nc(N3CCOCC3)c21 [Compound 380]
C[C@@H](CO)NS(=O)(=O)c1ccc(NC(=O)c2cc3c(c(N4CCC(F)(F)CC4)n2)N(C)CC3)c(N2CCC3(CC2)CC3)c1 [Compound 381]
C[C@H](CO)NS(=O)(=O)c1ccc(NC(=O)c2cc3c(c(N4CCC(F)(F)CC4)n2)N(C)CC3)c(N2CCC3(CC2)CC3)c1 [Compound 382]
C[C@@H]1CN(c2nc(C(=O)Nc3ccc(S(=O)(=O)N[C@@H](C)CO)cc3N3CCC4(CC3)CC4)cc3c2N(C)CC3)CCO1 [Compound 383]
